Results on five compounds are retold here after patent US7932042B1, “Methods and compositions for the treatment of psychotic disorders through the identification of the olanzapine poor response predictor genetic signature” (Suregene, LLC, priority 2010, dated 2011).

Marks after values point to notes of the source that are not given here.

In assay [1] the test system is patients suffering from schizophrenia. In words: CATIE study: change in total PANSS (LOCF) by drug arm, segmented by OPRP genetic signature status. The class given is in vivo, human. The arrangement: key to Mean difference olanzapine vs. named drug, CATIE unsegemented / Mean difference olanzapine vs. named drug, CATIE OPRP+: difference in change in total PANSS score (LOCF); decrease = better response. The settings on record: for DELTA PANSS % (mean change in PANSS score from baseline to LOCF): more negative = greater improvement; for Mean difference olanzapine vs. named drug, CATIE OPRP+: positive = olanzapine inferior. On the procedure: The CATIE study, a large federally funded clinical trial designed to assess the efficacy of antipsychotics in a real world setting, is a valuable resource for determining the role of genes in baseline psychopathology and drug response (Lieberman et al., 2005; Stroup et al., 2003). […] Additionally, whole genome SNP genotyping was performed for roughly half of the trial participants (Sullivan et al., 2008). Genotype and phenotype data for the CATIE trial were recently made available to qualified researchers through the NIMH Center for Collaborative Genetic Studies on Mental Disorders. The sample consisted of a total of 738 patients. For the present study, the inventors assigned OPRP status to 628 subjects, including 411 subjects of self-reported European ancestry and 217 subjects of self-reported African ancestry. Further details on the patient population are described in the study by Sullivan and coworkers (Sullivan et al., 2008). […] The design of the CATIE study has been described in detail by others (Lieberman et al., 2005; Stroup et al., 2003). […] Instead of entering into Phase II of the trial, subjects who switched from perphenazine entered Phase IB. […] Subjects who failed Phase IB then entered Phase II. A total of 738 subjects consented to provide DNA for genetic study. […] Only retrospective genetic analyses, judged to be exempt from human studies requirements by an IRB, were conducted in the current study. For the genetic analyses presented herein, the inventors combined and evaluated drug response data for both Phase I and Phase IB of the CATIE study. All tested patients were studied using well established clinical endpoints comparing baseline, intermediate, and last observation carried forward (LOCF) for the PANSS scores using CATIE data. LOCF analysis is a commonly used clinical endpoint for clinical trials for neuropsychiatric drugs, with particular changes in PANSS scores being used to indicate clinically significant response (Leucht et al., 2009). Using the clinical data from the CAIE trial, the inventors derived several different metrics used for quantifying response in clinical trials of antipsychotic medications. […] The greater the decrease in PANSS score, the better the clinical response. The most direct measure of clinical response is absolute change in PANSS score. In addition to absolute change, the improvement is often reported as a percentage change from baseline PANSS score. […] To examine the relationship of genotypes to drug response the inventors used the publicly available PLINK software (Purcell et al., 2007; available on the world wide web at pngu.mgh.harvard.edu/purcell/[…] Helix tree (Version 6.4.1; Golden Helix, Bozeman, Mont.). The inventors used Last observation Carry Forward (LOCF) delta PANSS values as a measure of response to antipsychotic treatment. […] The inventors refined the test further by conducting association analysis on using only those subjects that comprised the TT genotype of […]. […] Presence of the TT or TC genotypes of […] in individuals that comprised the TT genotype at […] indicates OPRP positive status. […] As mentioned previously, the mean change in absolute or percent PANSS provides an important measure of efficacy in patients undergoing antipsychotic treatments. Indeed, many pivotal trials in the psychosis field used absolute and/or percentage change in PANSS Score as the primary endpoint (Leucht et al., 2009). […] Therefore, in addition to examining a categorical definition of clinically significant response, the inventors determined the impact of segmentation by OPRP genetic signature status on the quantitative measure of clinical improvement-delta PANSS for LOCF.

Assay [2] has the same test system. In words: Diagnostic performance of the OPRP test in the CATIE study for worsening symptoms (Delta PANSS ≧ 0). It counts as in vivo, human. The source says: Several different measures of diagnostic performance can be used for comparing dichotomous outcomes. Two important metrics include percent positive agreement (PPA), a substitute for sensitivity, and percent negative agreement (PNA), a substitute for specificity.

The test system is the same in assay [3]. The settings on record: population not segmented by OPRP status; negative = greater reduction in PANSS; cited from earlier work.
Assay [4] shares this test system. Conditions: vs first generation antipsychotics; Davis et al. (2003); cited from earlier work.
Assay [5] shares this test system. Conditions: weighted mean difference in PANSS score (absolute); negative = olanzapine superior; cited from earlier work.
[6] abbreviates: olanzapine-treated OPRP+ group minus named comparator drug OPRP+ group, positive = poorer response to olanzapine.
[7] abbreviates: delta PANSS, negative = olanzapine superior.
Where [8] appears, read: olanzapine OPRP positive versus drug OPRP positive.

Take `Cc1cc2c(s1)Nc1ccccc1N=C2N1CCN(C)CC1` [Olanzapine]: in assay [1] (OPRP Negative), the “Number of individuals with change in total PANSS (LOCF) ≦−10% (responders)” value amounted to 73, the “Number of individuals with change in total PANSS (LOCF) ≧−10%” value stood at 66, the “Number of individuals with delta PANSS (LOCF) ≦0%” value amounted to 113 and the “Number of individuals with delta PANSS (LOCF) ≧0% (worsening symptoms)” value is 26. Also, in assay [1] (OPRP Negative), the “Responders (change in PANSS of ≦−10%)” value worked out at 53%^* and the “Worsening (delta PANSS ≧0%)” value is recorded as 19%^*. Also, the “DELTA PANSS % (mean change in PANSS score from baseline to LOCF)” value in assay [1] (OPRP Negative subjects) is −11.6%. In assay [1] (OPRP Positive), the “Number of individuals with change in total PANSS (LOCF) ≦−10% (responders)” value is listed as 1, the “Number of individuals with change in total PANSS (LOCF) ≧−10%” value was 25, the “Number of individuals with delta PANSS (LOCF) ≦0%” value is 8 and the “Number of individuals with delta PANSS (LOCF) ≧0% (worsening symptoms)” value is 18. Also, in assay [1] (OPRP Positive), the “Responders (change in PANSS of ≦−10%)” value amounted to 4% and the “Worsening (delta PANSS ≧0%)” value came out at 69%. Moreover, in assay [1] (OPRP Positive subjects), the “DELTA PANSS % (mean change in PANSS score from baseline to LOCF)” value is 4.3%. For the same compound, the “DELTA PANSS % (mean change in PANSS score from baseline to LOCF)” value in assay [1] (OPRP Positive subjects, listed as olanzapine) was “+4.3%”. Also, in assay [1] (olanzapine OPRP positive versus olanzapine OPRP negative), the “CATIE Effect Size” value was 1.0^a. Moreover, the “CATIE Effect Size” value in assay [1] (olanzapine OPRP positive versus olanzapine OPRP negative, listed as olanzapine) was determined as 1.0. The “Mean difference (95% CI) in delta PANSS” value in assay [1] (olanzapine OPRP+ minus olanzapine OPRP−) is recorded as 15.9 (9.7 to 22.1). The “Effect size (mean difference / standard deviation)” value in assay [1] (olanzapine OPRP+ vs olanzapine OPRP−) is 1.0. Further, in assay [2] (OPRP Negative), the “Non-Worsen (number of subjects)” value came to 113 and the “Worsen (number of subjects, Delta PANSS ≧ 0)” value is recorded as 26. Besides, in assay [2] (OPRP Positive), the “Non-Worsen (number of subjects)” value was 8 and the “Worsen (number of subjects, Delta PANSS ≧ 0)” value is given as 18.
As for `OCCN1CCN(CCCN2c3ccccc3Sc3ccc(Cl)cc32)CC1` [Perphenazine], in assay [1] (OPRP Negative), the “Number of individuals with change in total PANSS (LOCF) ≦−10% (responders)” value worked out at 39, the “Number of individuals with change in total PANSS (LOCF) ≧−10%” value was 71, the “Number of individuals with delta PANSS (LOCF) ≦0%” value was 65 and the “Number of individuals with delta PANSS (LOCF) ≧0% (worsening symptoms)” value is given as 45. Also, in assay [1] (OPRP Negative), the “Responders (change in PANSS of ≦−10%)” value turned out to be 35%^+ and the “Worsening (delta PANSS ≧0%)” value turned out to be 41%^+++. In assay [1] (OPRP Positive), the “Number of individuals with change in total PANSS (LOCF) ≦−10% (responders)” value is 5, the “Number of individuals with change in total PANSS (LOCF) ≧−10%” value was 7, the “Number of individuals with delta PANSS (LOCF) ≦0%” value was 9 and the “Number of individuals with delta PANSS (LOCF) ≧0% (worsening symptoms)” value was 3. Further, in assay [1] (OPRP Positive), the “Responders (change in PANSS of ≦−10%)” value was 42%^^ and the “Worsening (delta PANSS ≧0%)” value is listed as 25%^. In addition, the “Mean difference (95% CI) in delta PANSS” value in assay [1] (setting [6]) was 12 (2.0 to 22.0). Further, in assay [2] (OPRP Positive), the “Non-Worsen (number of subjects)” value is 9 and the “Worsen (number of subjects, Delta PANSS ≧ 0)” value was found to be 3.
As for `OCCOCCN1CCN(C2=Nc3ccccc3Sc3ccccc32)CC1` [Quetiapine], in assay [1] (OPRP Negative), the “Number of individuals with change in total PANSS (LOCF) ≦−10% (responders)” value amounted to 48, the “Number of individuals with change in total PANSS (LOCF) ≧−10%” value was 99, the “Number of individuals with delta PANSS (LOCF) ≦0%” value worked out at 95 and the “Number of individuals with delta PANSS (LOCF) ≧0% (worsening symptoms)” value is 62. In addition, in assay [1] (OPRP Negative), the “Responders (change in PANSS of ≦−10%)” value is given as 33%^+++ and the “Worsening (delta PANSS ≧0%)” value is listed as 42%^+++. In assay [1] (OPRP Positive), the “Number of individuals with change in total PANSS (LOCF) ≦−10% (responders)” value worked out at 4, the “Number of individuals with change in total PANSS (LOCF) ≧−10%” value is 14, the “Number of individuals with delta PANSS (LOCF) ≦0%” value amounted to 9 and the “Number of individuals with delta PANSS (LOCF) ≧0% (worsening symptoms)” value was 9. Also, in assay [1] (OPRP Positive), the “Responders (change in PANSS of ≦−10%)” value was determined as 22% and the “Worsening (delta PANSS ≧0%)” value worked out at 50%. In assay [1] (setting [7]), the “Mean difference olanzapine vs. named drug, CATIE OPRP−” value is −8.4 and the “Mean difference olanzapine vs. named drug, CATIE unsegemented” value is recorded as −6.2. Besides, the “Mean difference olanzapine vs. named drug, CATIE OPRP+” value in assay [1] (delta PANSS) amounted to 5.5. In addition, in assay [1] (setting [8]), the “CATIE Effect Size” value is recorded as 0.3^b. In addition, in assay [1] (setting [6]), the “Mean difference (95% CI) in delta PANSS” value is given as 5.5 (−4.1 to 15.0). In addition, in assay [2] (OPRP Positive), the “Non-Worsen (number of subjects)” value worked out at 9 and the “Worsen (number of subjects, Delta PANSS ≧ 0)” value turned out to be 9. Moreover, the “Effect Size vs. Placebo” value in assay [3] is reported as −0.42. Besides, in assay [4], the “Effect Size vs. FGA” value is on record as 0.01. In assay [5], the “Mean difference olanzapine vs. named drug, Meta-analysis” value is −3.7.
As for `Cc1nc2n(c(=O)c1CCN1CCC(c3noc4cc(F)ccc34)CC1)CCCC2` [Risperidone], in assay [2] (OPRP Positive), the “Non-Worsen (number of subjects)” value is recorded as 13 and the “Worsen (number of subjects, Delta PANSS ≧ 0)” value stood at 7. Moreover, in assay [3], the “Effect Size vs. Placebo” value is on record as −0.59. Besides, in assay [4], the “Effect Size vs. FGA” value is −0.25. Moreover, the “Mean difference olanzapine vs. named drug, Meta-analysis” value in assay [5] is −1.9.
For `O=C1Cc2cc(CCN3CCN(c4nsc5ccccc45)CC3)c(Cl)cc2N1` [Ziprasidone], in assay [1] (OPRP Negative), the “Number of individuals with change in total PANSS (LOCF) ≦−10% (responders)” value was 16, the “Number of individuals with change in total PANSS (LOCF) ≧−10%” value is given as 53, the “Number of individuals with delta PANSS (LOCF) ≦0%” value was found to be 35 and the “Number of individuals with delta PANSS (LOCF) ≧0% (worsening symptoms)” value is 34. For the same compound, in assay [1] (OPRP Negative), the “Responders (change in PANSS of ≦−10%)” value was 23%^++++ and the “Worsening (delta PANSS ≧0%)” value is listed as 49%^++++. In assay [1] (OPRP Positive), the “Number of individuals with change in total PANSS (LOCF) ≦−10% (responders)” value worked out at 2, the “Number of individuals with change in total PANSS (LOCF) ≧−10%” value was found to be 9, the “Number of individuals with delta PANSS (LOCF) ≦0%” value is listed as 7 and the “Number of individuals with delta PANSS (LOCF) ≧0% (worsening symptoms)” value is 4. Besides, in assay [1] (OPRP Positive), the “Responders (change in PANSS of ≦−10%)” value came out at 18% and the “Worsening (delta PANSS ≧0%)” value came out at 36%. Further, the “Mean difference olanzapine vs. named drug, CATIE unsegemented” value in assay [1] (setting [7]) is −4.9. Further, in assay [1] (delta PANSS), the “Mean difference olanzapine vs. named drug, CATIE OPRP+” value is 4.8. In assay [1] (setting [8]), the “CATIE Effect Size” value is 0.2^b. The “Mean difference (95% CI) in delta PANSS” value in assay [1] (setting [6]) was 4.8 (−2.7 to 12.3). In assay [2] (OPRP Positive), the “Non-Worsen (number of subjects)” value came to 7 and the “Worsen (number of subjects, Delta PANSS ≧ 0)” value is 4. Moreover, the “Effect Size vs. Placebo” value in assay [3] is −0.48. Further, in assay [4], the “Effect Size vs. FGA” value was −0.04. The “Mean difference olanzapine vs. named drug, Meta-analysis” value in assay [5] was −8.3.
